Assay results as given in article PMC8803706, “Fibroblast activation protein targeted therapy using [^177Lu]FAPI-46 compared with [^225Ac]FAPI-46 in a pancreatic cancer model” (European Journal of Nuclear Medicine and Molecular Imaging, 2021).

Tests used:
[1] = Body weight of treated PANC-1 xenograft mice; type: in vivo
Description: (§1) [^177Lu]FAPI-46 and [^225Ac]FAPI-46 were injected into PANC-1 xenograft mice via the tail vein (9 weeks old, body weight = 22.7 ± 2.1 g). Mice injected with [^177Lu]FAPI-46 were divided into four groups according to the injected dose: 3 MBq (3.2 ± 0.1 MBq, n = 6), 10 MBq (10.2 ± 0.5 MBq, n = 6), 30 MBq (30.5 ± 2.7 MBq, n = 6) and control (n = 4) groups. Mice injected with [^225Ac]FAPI-46 were divided into four groups: 3 kBq (2.9 ± 0.0 kBq, n = 3), 10 kBq (8.5 ± 1.1 kBq, n = 2), 30 kBq (30.5 ± 0.7 kBq, n = 6) and control (n = 7) groups. The tumour size and body weight were measured with a caliper using the elliptical sphere model calculation, three times per week during the observation period.

PANC-1 xenograft mice [2] = test: Biodistribution of [^177Lu]FAPI-46 and [^225Ac]FAPI-46 in PANC-1 xenograft mice (gamma counter); type: in vivo; conditions: for organs with relatively high accumulation / residence: 24 h post-injection; for clearance from organs: between 3 and 24 h post-administration
Description: [^177Lu]FAPI-46 (3.3 ± 0.1 MBq) and [^225Ac]FAPI-46 (12.5 ± 0.7 kBq) were injected into PANC-1 xenograft mice (9 weeks old, body weight = 23.9 ± 0.9 g, n = 12). After euthanasia by deep inhalation anesthesia with isoflurane, the brain, thyroid gland, salivary glands, lungs, heart, liver, spleen, pancreas, stomach, small intestine, large intestine, kidneys, bone (femur), bladder, testis, tumour, blood, and urine were removed and weighed at 3 h and 24 h. Radioactivity was also measured using a gamma counter (2480 Wizard^2 Gamma Counter, Perkin Elmer, USA).

PANC-1 xenograft = test: Treatment effect on tumour size in PANC-1 xenograft mice; type: in vivo; conditions: for relative ratio of the tumour size compared to the control group: day 40
Description: Male nude mice (BALB/cSlc-nu/nu) were purchased from Japan SLC Inc. (Hamamatsu, Japan). Animals were housed under a 12-h light/12-h dark cycle and allowed free access to food and water. The mice were injected with PANC-1 cells (1 × 10^7 cells) in a mixture of phosphate-buffered saline and Matrigel (0.1 mL, 1:1; BD Biosciences, Franklin Lakes, NJ, USA). Tumour xenograft models were evaluated 3 weeks after transplantation of PANC-1 cells (tumour volume = 716 ± 304 mm^3). Euthanasia was performed in the following conditions: (1) when the animals had unbearable suffering, (2) when a significant decrease in activity or a marked decrease in food and water intake was observed, and (3) at the end of the observation period (up to 44 days for [^177Lu]FAPI-46 and 32 days for [^225Ac]FAPI-46). Euthanasia was performed by deep anesthesia using isoflurane inhalation.
as §1

PANC-1 xenograft mice [3] = test: Histological analysis (H&E) of kidneys and tumours after treatment; type: in vivo
Description: All mice were killed after [^18F]FAPI-74 PET imaging, and tumour xenografts were removed. Immunohistochemical staining was performed using anti-FAP alpha antibody (ab53066; Abcam, Cambridge, UK), and the Dako EnVision + System—HRP Labelled Polymer Anti-Rabbit (K4003) (DAKO Corp., Glostrup, Denmark). To evaluate toxicity, the kidneys were removed after the mice treated with [^177Lu]FAPI-46 and [^225Ac]FAPI-46 were sacrificed. The tissues were fixed in 10% neutral buffered formalin solution for paraffin blocks and stained with hematoxylin and eosin (H&E). Tumour blocks in all mice were also stained with H&E.

PANC-1 xenograft mice [4] = conditions: data not shown
PANC-1 xenograft mice [5] = test: [^18F]FAPI-74 PET imaging in PANC-1 xenograft mice; type: in vivo
Description: PET images were acquired with a small animal PET scanner (Siemens Inveon PET/CT) 3 weeks after the implantation in PANC-1 xenograft mice (9 weeks old, body weight = 25.3 ± 1.2 g, n = 9). Under 2% isoflurane anesthesia, [^18F]FAPI-74 (12.4 ± 1.7 MBq) was injected in the tail vein. Dynamic PET scans (scan duration = 70 min, n = 2) were started simultaneously with the bolus injection. Static PET scans (scan duration = 10 min, n = 7) were performed 1 h after injection, followed by a CT scan. PET data were reconstructed into 2-min frames in the dynamic PET scan (2 min × 35 frames) and one frame in the static PET scan by three-dimensional ordered-subset expectation–maximization (16 subsets, 2 iterations), with attenuation and scatter correction. Regions of interest were drawn on the muscle, heart, lungs, liver, gallbladder, kidneys, intestine, and tumour. The mean standardized uptake values (SUVmean) and maximum standardized uptake values (SUVmax) were measured using PMOD (Version 4.0).

[6] = static PET scan 1 h after i.v. injection

CN(CCCN1CCN(C(=O)CN2CCN(CC(=O)[O-])CCN(CC(=O)[O-])CCN(CC(=O)[O-])CC2)CC1)c1ccc2nccc(C(=O)NCC(=O)N3CC(F)(F)C[C@H]3C#N)c2c1.[177Lu+3] [[^177Lu]FAPI-46]
body weight compared to the controls ([1]; 10 MBq and 30 MBq groups): slight decrease without statistical significance | %ID/g of the urine (PANC-1 xenograft mice [2]; 3 h post-administration, PANC-1 xenograft mice): 21.2 ± 15.3 %ID/g | organs with relatively high accumulation / residence (PANC-1 xenograft mice [2]): relatively high tracer accumulation was seen in the tumour, large intestine, and bone | uptake in the liver (PANC-1 xenograft mice [2]; PANC-1 xenograft mice): low | clearance from organs (PANC-1 xenograft mice [2]): Most organs showed fast clearance | tumour growth after administration (PANC-1 xenograft; 3, 10, 30 MBq, multiple comparisons across the doses): inhibitory trend after administration, although the changes were not statistically significant | therapeutic effects (time course) (PANC-1 xenograft; 3 MBq and 10 MBq groups): slower and were seen until day 12 | relative ratio of the tumour size compared to the control group (PANC-1 xenograft; 3 MBq group): 0.62 | relative ratio of the tumour size compared to the control group (PANC-1 xenograft; 10 MBq group): 0.56 | time after administration at which tumour-suppressive effects were observed (PANC-1 xenograft; 30 MBq group): 9 days | relative ratio of the tumour size compared to the control group (PANC-1 xenograft; 30 MBq group): 0.27 | histological changes in the kidneys (H&E) (PANC-1 xenograft mice [3]; day 44 after administration): No histological changes | histological changes in the tumour (H&E) compared to controls (PANC-1 xenograft mice [3]; day 44 after administration): No significant difference

[177Lu+3].[Cl-].[Cl-].[Cl-] [[^177Lu]LuCl3, Lutetium-177 chloride]
lethal dose (PANC-1 xenograft mice [4]): 30 MBq

N#C[C@@H]1CCCN1C(=O)CNC(=O)c1ccnc2ccc(OCCCN3CCN(C(=O)CN4CCN(CC(=O)[O-])CCN(CC(=O)[O-])CC4)CC3)cc12.[18F][Al+2] [[^18F]FAPI-74]
SUVmean in the gallbladder (PANC-1 xenograft mice [5]; [6]): 0.66 ± 0.15 | SUVmean in the heart (PANC-1 xenograft mice [5]; [6]): 0.08 ± 0.01 | SUVmean in the intestine (PANC-1 xenograft mice [5]; [6]): 0.61 ± 0.48 | SUVmean in the kidneys (PANC-1 xenograft mice [5]; [6]): 0.39 ± 0.07 | SUVmean in the liver (PANC-1 xenograft mice [5]; [6]): 0.14 ± 0.02 | SUVmean in the muscle (PANC-1 xenograft mice [5]; [6]): 0.05 ± 0.01 | SUVmean in the tumour (PANC-1 xenograft mice [5]; [6]): 0.24 ± 0.04 | clearance and tumour washout on dynamic PET (PANC-1 xenograft mice [5]; time-activity curve): cleared rapidly by the kidneys but washout from the tumour occurred slowly

CN(CCCN1CCN(C(=O)CN2CCN(CC(=O)[O-])CCN(CC(=O)[O-])CCN(CC(=O)[O-])CC2)CC1)c1ccc2nccc(C(=O)NCC(=O)N3CC(F)(F)C[C@H]3C#N)c2c1.[225Ac+3] [[^225Ac]FAPI-46]
body weight recovery ([1]; 3 kBq and 10 kBq groups): recovery after day 7 | body weight ([1]; all groups (3, 10, 30 kBq)): decreasing trend in the first week | organs with relatively high accumulation / residence (PANC-1 xenograft mice [2]): relatively higher residence time in the tumour, spleen, liver, stomach, small intestine, and large intestine | uptake in the liver (PANC-1 xenograft mice [2]; PANC-1 xenograft mice): high accumulation in the liver | clearance from organs (PANC-1 xenograft mice [2]): Most organs showed fast clearance | tumour-suppressive effects (PANC-1 xenograft; 3 kBq group): very mild | tumour growth after treatment (PANC-1 xenograft; 10 kBq and 30 kBq groups): suppressed immediately after treatment | tumour size vs control group (PANC-1 xenograft; 30 kBq group): significantly smaller than those in the control group on days 5–9 and day 25 | day at which tumour regrowth began (PANC-1 xenograft; high dose): 12 days | histological changes in the kidneys (H&E) (PANC-1 xenograft mice [3]; day 32 after administration): No histological changes
